Source: article PMC3995882, “Antimicrobial and Immunomodulatory Activities of PR-39 Derived Peptides” (PLoS ONE, 2014)
≈ marks a conversion by molar mass, not a printed value. Where a SMILES comes first, the peptide text is derived from it.

What was measured:
E. coli = assay: Colony counting assay (MBC); format: cell-based, Escherichia coli; conditions: 3 h 37°C, 10 mM phosphate buffer pH 7.0 with 1/1000 TSB, MBC = <100 CFU/ml; for MBC E. coli 0 mM NaCl: 2×10^6 CFU/ml, no NaCl added; for MBC E. coli 100 mM NaCl: 100 mM NaCl added
Experimental: (§1) Overnight cultures of E. coli and B. globigii were grown in TSB medium at 37°C to mid-logarithmic phase. The antimicrobial activity of the PR-39 derived peptides was tested using colony counting as described before. In short, cells were collected via centrifugation at 900×g for 10 minutes, and resuspended in 10 mM phosphate buffer, pH 7.0, containing 1/1000 TSB medium (Buffer A). Cells were further diluted to 2×10^6 CFU/ml in the same buffer. Next, 25 µl of cell suspension was mixed with an equal volume of different concentrations of peptides ranging from 0–80 µM, and incubated further for 3 hours at 37°C. Ten-fold dilutions were prepared in minimal buffer containing 1/1000 TSB medium in distilled water, and 100 µl from each dilution was spread on TSA plates (Trypton Soy Agar; Oxoid). The plates were incubated at 37°C and the number of colonies was counted 24 h later to determine the number of surviving bacteria. Minimal Bactericidal Concentration (MBC) was defined as <100 CFU/ml corresponding to the detection limit of this assay. To determine the dependence of activity of PR-39 on the energy status of the cell, E. coli was incubated 30 min at 37°C in the presence of the metabolic uncouplers 50 µM carbonyl cyanide m-chlorophenylhydrazone (CCCP), or 5 mM 2,4-dinitrophenol (DNP). Subsequently, an antimicrobial activity assay was performed as described above.

B. globigii = format: cell-based, Bacillus globigii; conditions: colony counting, 3 h 37°C, 10 mM phosphate buffer pH 7.0 with 1/1000 TSB, MBC = <100 CFU/ml; for MBC B. globigii 0 mM NaCl: 2×10^6 CFU/ml, no NaCl added; for MBC B. globigii +100 mM NaCl: 100 mM NaCl added
Experimental: as §1

## CC(C)C[C@H](NC(=O)[C@H](Cc1ccc(O)cc1)NC(=O)[C@@H]1CCCN1C(=O)[C@@H]1CCCN1C(=O)[C@H](CCCNC(=N)N)NC(=O)[C@@H]1CCCN1C(=O)[C@H](CCCNC(=N)N)NC(=O)[C@H](CCCNC(=N)N)NC(=O)[C@@H](N)CCCNC(=N)N)C(=O)N1CCC[C@H]1C(=O)N[C@@H](CCCNC(=N)N)C(=O)N1CCC[C@H]1C(=O)N[C@@H](CCCNC(=N)N)C(=O)N1CCC[C@H]1C(=O)N1CCC[C@H]1C(=O)O [PR-39(1–15)] (H-RRRPRPPYLPRPRPP-OH)
E. coli
  MBC E. coli 0 mM NaCl: 5 µM (≈ 9.56 µg/mL)
  MBC E. coli 100 mM NaCl: >40 µM
B. globigii
  MBC B. globigii 0 mM NaCl: 5 µM (≈ 9.56 µg/mL)
  MBC B. globigii +100 mM NaCl: >40 µM

## CC(C)C[C@H](NC(=O)[C@H](Cc1ccc(O)cc1)NC(=O)[C@@H]1CCCN1C(=O)[C@@H]1CCCN1C(=O)[C@H](CCCNC(=N)N)NC(=O)[C@@H]1CCCN1C(=O)[C@H](CCCNC(=N)N)NC(=O)[C@H](CCCNC(=N)N)NC(=O)[C@@H](N)CCCNC(=N)N)C(=O)N1CCC[C@H]1C(=O)N[C@@H](CCCNC(=N)N)C(=O)N1CCC[C@H]1C(=O)N[C@@H](CCCNC(=N)N)C(=O)N1CCC[C@H]1C(=O)N1CCC[C@H]1C(=O)N1CCC[C@H]1C(=O)N[C@@H](Cc1ccccc1)C(=O)N[C@@H](Cc1ccccc1)C(=O)O [PR-39(1–18)] (H-RRRPRPPYLPRPRPPPFF-OH)
E. coli
  MBC E. coli 0 mM NaCl: 5 µM (≈ 11.5 µg/mL)
  MBC E. coli 100 mM NaCl: 20 µM (≈ 46.1 µg/mL)
B. globigii
  MBC B. globigii 0 mM NaCl: 2.5 µM (≈ 5.76 µg/mL)
  MBC B. globigii +100 mM NaCl: 10 µM (≈ 23 µg/mL)

## CC(C)C[C@H](NC(=O)[C@H](CCCNC(=N)N)NC(=O)[C@@H]1CCCN1C(=O)[C@@H]1CCCN1C(=O)[C@H](Cc1ccccc1)NC(=O)[C@H](Cc1ccccc1)NC(=O)[C@@H]1CCCN1C(=O)[C@@H]1CCCN1C(=O)[C@@H]1CCCN1C(=O)[C@H](CCCNC(=N)N)NC(=O)[C@@H]1CCCN1C(=O)[C@H](CCCNC(=N)N)NC(=O)[C@@H]1CCCN1C(=O)[C@H](CC(C)C)NC(=O)[C@H](Cc1ccc(O)cc1)NC(=O)[C@@H]1CCCN1C(=O)[C@@H]1CCCN1C(=O)[C@H](CCCNC(=N)N)NC(=O)[C@@H]1CCCN1C(=O)[C@H](CCCNC(=N)N)NC(=O)[C@H](CCCNC(=N)N)NC(=O)[C@@H](N)CCCNC(=N)N)C(=O)O [PR-39(1–22)] (H-RRRPRPPYLPRPRPPPFFPPRL-OH)
E. coli
  MBC E. coli 0 mM NaCl: 1.25 µM (≈ 3.46 µg/mL)
  MBC E. coli 100 mM NaCl: 2.5 µM (≈ 6.92 µg/mL)
B. globigii
  MBC B. globigii 0 mM NaCl: 2.5 µM (≈ 6.92 µg/mL)
  MBC B. globigii +100 mM NaCl: 10 µM (≈ 27.7 µg/mL)

## CC[C@H](C)[C@H](NC(=O)[C@H](CCCNC(=N)N)NC(=O)[C@@H]1CCCN1C(=O)[C@@H]1CCCN1C(=O)[C@H](CC(C)C)NC(=O)[C@H](CCCNC(=N)N)NC(=O)[C@@H]1CCCN1C(=O)[C@@H]1CCCN1C(=O)[C@H](Cc1ccccc1)NC(=O)[C@H](Cc1ccccc1)NC(=O)[C@@H]1CCCN1C(=O)[C@@H]1CCCN1C(=O)[C@@H]1CCCN1C(=O)[C@H](CCCNC(=N)N)NC(=O)[C@@H]1CCCN1C(=O)[C@H](CCCNC(=N)N)NC(=O)[C@@H]1CCCN1C(=O)[C@H](CC(C)C)NC(=O)[C@H](Cc1ccc(O)cc1)NC(=O)[C@@H]1CCCN1C(=O)[C@@H]1CCCN1C(=O)[C@H](CCCNC(=N)N)NC(=O)[C@@H]1CCCN1C(=O)[C@H](CCCNC(=N)N)NC(=O)[C@H](CCCNC(=N)N)NC(=O)[C@@H](N)CCCNC(=N)N)C(=O)O [PR-39(1–26)] (H-RRRPRPPYLPRPRPPPFFPPRLPPRI-OH)
E. coli
  MBC E. coli 0 mM NaCl: 2.5 µM (≈ 8.07 µg/mL)
  MBC E. coli 100 mM NaCl: 1.25 µM (≈ 4.04 µg/mL)
B. globigii
  MBC B. globigii 0 mM NaCl: 5 µM (≈ 16.1 µg/mL)
  MBC B. globigii +100 mM NaCl: 5 µM (≈ 16.1 µg/mL)
